Legend:
[1] = target: T1, ΔF508 CTFR (Homo sapiens, UniProt P13569, DEL508-508); test: Corrector assay, FRT cell electrophysiological (Ussing chamber) assay; assay type: cell-based; details: FRT cells treated 24 hours with 3 μM compound; total change in ISC normalized to 10 μM reference corrector C17
T1 construct: expressed in transfected cells; host or cells: FRT epithelial cells (Fischer rat thyroid)
Procedure: (§1) For use in the corrector assay, FRT epithelial cell monolayers are grown on Snapwell filter inserts and optionally treated with a compound of invention, vehicle (DMSO) or reference corrector N-(2-(5-chloro-2-methoxyphenylamino)-4′-methyl-4,5′-bithiazol-2′-yl)pivalamide (C17). Cells are exposed to compound, vehicle (negative control) or reference corrector (positive control) in a cell/tissue incubator at 37° C. for 24 hours prior to the assay. The inserts are then transferred to a Physiologic Instruments Ussing chamber (P2302) and superfused with 5 ml of a HEPES buffered physiological saline (HB-PS) as the serosal solution with composition (in mM): NaCl, 137; KCl, 4.0; CaCl2, 1.8; MgCl2, 1; HEPES, 10; Glucose, 10; pH adjusted to 7.4 with NaOH. The mucosal solution will be 5 ml of 10CF—PS with composition (in mM): Na-gluconate, 137; KCl, 4; CaCl2, 1.8; MgCl2, 1; HEPES, 10; Glucose, 10; pH adjusted to 7.4 with N-methyl-D-glucamine to create a transepithelial Cl ion gradient. Transepithelial voltage is clamped to 0 mV and the short circuit current (ISC)—reflecting the net ion (Cl—) transport across the epithelial cell monolayer—is measured using a Physiologic Instruments VCC MC8 epithelial voltage clamp (Physiologic Instruments, Inc., San Diego, Calif.). The assay is carried out at 27° C.
(§2) After acquisition of at least 10 minutes of baseline current, agonists (final concentrations: 10 μM forskolin, 100 μM 3-isobutyl-1-methylxanthine [IBMX] and 20 μM genistein) and antagonist (final concentration: 20 μM CFTRinh-172) will be applied sequentially and cumulatively at ˜10-15 minute intervals to both serosal and mucosal epithelial surfaces. On occasion where a 10-15 min interval is not sufficient for ISC to reach a new steady-state after compound addition, the interval between compound additions may have been extended.
(§3) Agonists are added as 200×-1000× stock solutions to both the serosal and mucosal sides. Transepithelial resistance is monitored every 20 s. In a potentiator assay, appropriate volumes from 10 mM compound stock solution in DMSO are added to the mucosal side (i.e. the 10CF—PS solution containing half chamber) of vehicle treated inserts. Compound is added acutely after activation of CFTR by Forskolin and prior to additions of IBMX, genistein, and CFTRinh-172.
(§4) Corrector efficacy—as given in Table 3—is measured as the total change in ISC (i.e. the difference in ISC before and after addition of all agonists) obtained from cells treated with 3 μM compound of invention and normalized to the total change in ISC obtained from the same batch of cells treated contemporaneously with 10 μM reference corrector C17. Potentiator efficacy—as given in Table 3—is measured as the change in ISC after acute addition of 1 μM compound to the mucosal side of vehicle treated cells divided by the total change in ISC after sequential additions of 1 μM compound, 100 μM IBMX, and 20 μM genistein.

[2] = target: T1, ΔF508 CTFR; test: Potentiator assay, FRT cell electrophysiological (Ussing chamber) assay; assay type: cell-based; details: change in ISC after acute addition of 1 μM compound to mucosal side of vehicle treated FRT cells divided by total change in ISC after 1 μM compound, 100 μM IBMX, 20 μM genistein
Procedure: as §1, §2, §3, §4

T1 sequence (P13569 with tags, fused parts or gaps DEL508-508): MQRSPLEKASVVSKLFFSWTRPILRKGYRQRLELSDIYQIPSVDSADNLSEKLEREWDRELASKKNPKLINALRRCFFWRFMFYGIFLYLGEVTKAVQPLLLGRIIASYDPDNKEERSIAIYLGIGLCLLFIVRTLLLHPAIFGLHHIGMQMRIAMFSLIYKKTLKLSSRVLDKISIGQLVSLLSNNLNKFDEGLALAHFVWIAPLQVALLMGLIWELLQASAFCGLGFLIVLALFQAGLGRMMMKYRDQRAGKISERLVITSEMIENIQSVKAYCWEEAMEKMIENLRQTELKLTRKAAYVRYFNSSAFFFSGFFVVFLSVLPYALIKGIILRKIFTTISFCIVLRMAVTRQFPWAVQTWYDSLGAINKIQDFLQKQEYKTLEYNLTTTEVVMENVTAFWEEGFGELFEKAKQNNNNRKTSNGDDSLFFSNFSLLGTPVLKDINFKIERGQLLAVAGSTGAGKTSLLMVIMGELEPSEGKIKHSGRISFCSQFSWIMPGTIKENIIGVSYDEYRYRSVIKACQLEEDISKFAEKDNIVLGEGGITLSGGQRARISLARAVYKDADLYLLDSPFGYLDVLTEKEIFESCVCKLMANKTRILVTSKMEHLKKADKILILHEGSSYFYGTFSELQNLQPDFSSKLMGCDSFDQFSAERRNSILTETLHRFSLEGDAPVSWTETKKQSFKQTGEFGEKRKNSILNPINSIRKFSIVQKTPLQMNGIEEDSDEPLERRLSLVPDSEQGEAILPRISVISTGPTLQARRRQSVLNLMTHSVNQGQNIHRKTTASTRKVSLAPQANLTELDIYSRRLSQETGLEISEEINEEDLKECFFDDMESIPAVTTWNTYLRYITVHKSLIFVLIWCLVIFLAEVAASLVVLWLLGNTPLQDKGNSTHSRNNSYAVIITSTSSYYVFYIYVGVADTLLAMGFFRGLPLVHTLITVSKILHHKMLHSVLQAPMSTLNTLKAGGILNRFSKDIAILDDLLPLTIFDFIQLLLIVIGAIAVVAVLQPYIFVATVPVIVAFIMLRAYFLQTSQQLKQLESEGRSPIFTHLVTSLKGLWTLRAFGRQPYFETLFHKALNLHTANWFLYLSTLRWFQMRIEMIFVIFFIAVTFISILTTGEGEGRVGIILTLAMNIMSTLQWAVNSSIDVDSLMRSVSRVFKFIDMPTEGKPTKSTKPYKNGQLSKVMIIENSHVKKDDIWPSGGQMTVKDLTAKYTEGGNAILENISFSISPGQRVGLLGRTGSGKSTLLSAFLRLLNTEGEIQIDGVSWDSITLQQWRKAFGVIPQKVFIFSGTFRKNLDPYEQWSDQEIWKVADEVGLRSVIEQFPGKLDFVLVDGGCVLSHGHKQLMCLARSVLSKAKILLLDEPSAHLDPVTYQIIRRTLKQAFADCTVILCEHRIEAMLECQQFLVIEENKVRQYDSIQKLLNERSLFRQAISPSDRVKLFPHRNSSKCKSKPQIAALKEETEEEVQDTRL

Row | SMILES | Corrector Efficacy [1] | Potentiator Efficacy [2]
1 | Cc1nc(N[C@H]2CC[C@@H](C)CC2)nc(O[C@@H]2CCOC2)c1-c1ccc(N2CCOCC2)cc1 [Example 43, 4-methyl-N-((1s,4S)-4-methylcyclohexyl)-5-(4-morpholinophenyl)-6((R)-tetrahydrofuran-3-yloxy)pyrimidin-2-amine] | ++ (++=0.3-0.6) | + (+=<0.1)
2 | CS(=O)(=O)N1CC[C@@H](COc2nc(N[C@H]3CC[C@@H](C)CC3)ncc2-c2ccc(N3CCOCC3)cc2)C1 [Example 78] | ++ (++=0.3-0.6) | + (+=<0.1)
3 | COC(=O)N1CCC(Oc2ccc(-c3cnc(NC4CCC(C)CC4)nc3O[C@@H]3CCOC3)cc2)C1 (stereo partly drawn) [Example 103, methyl 3-(4-(2-((1s,4S)-4-methylcyclohexylamino)-4-((R)-tetrahydrofuran-3-yloxy)pyrimidin-5-yl)phenoxy)pyrrolidine-1-carboxylate] | ++ (++=0.3-0.6) | + (+=<0.1)
4 | COCCOc1ccc(-c2cnc(N[C@H]3CC[C@@H](C)CC3)nc2OC2CN(S(C)(=O)=O)C2)cc1 [Example 153, 5-(4-(2-methoxyethoxy)phenyl)-N-((1s,4s)-4-methylcyclohexyl)-4-(1-(methylsulfonyl)azetidin-3-yloxy)pyrimidin-2-amine] | ++ (++=0.3-0.6) | + (+=<0.1)
5 | CN(C)S(=O)(=O)N1CC(Oc2nc(N[C@H]3CC[C@@H](C)CC3)ncc2-c2ccc(N3CCOCC3)cc2)C1 [Example 1, N,N-dimethyl-3-(2-((1s,4s)-4-methylcyclohexylamino)-5-(4-morpholinophenyl)-pyrimidin-4-yloxy)azetidine-1-sulfonamide] | +++ (+++=>0.6) | ++ (++=0.1-0.25)
6 | CS(=O)(=O)N1CC(Oc2nc(N[C@H]3CC[C@@H](C)CC3)ncc2-c2ccc(N3CCOCC3)cc2)C1 [Example 59, N-((1s,4s)-4-methylcyclohexyl)-4-(1-(methylsulfonyl)azetidin-3-yloxy)-5-(4-morpholinophenyl)pyrimidin-2-amine] | ++ (++=0.3-0.6) | + (+=<0.1)
7 | CC1CCC(Nc2ncc(-c3ccc(O[C@H]4CCOC4)cc3)c(OC3CCN(S(C)(=O)=O)CC3)n2)CC1 (stereo partly drawn) [Example 152, N-((1s,4s)-4-methylcyclohexyl)-4-(1-(methylsulfonyl)piperidin-4-yloxy)-5-(4-((S)-tetrahydrofuran-3-yloxy)phenyl)pyrimidin-2-amine] | +++ (+++=>0.6) | +++ (+++=>0.25)
8 | CC1CCC(Nc2ncc(-c3ccc(O[C@H]4CCOC4)cc3)c(OC3CN(S(=O)(=O)N(C)C)C3)n2)CC1 (stereo partly drawn) [Example 214, N,N-dimethyl-3-(2-((1s,4s)-4-methylcyclohexylamino)-5-(4-((S)-tetrahydrofuran-3-yloxy)phenyl)pyrimidin-4-yloxy)azetidine-1-sulfonamide] | +++ (+++=>0.6) | + (+=<0.1)
9 | CC1CCCC(C)C1Nc1ncc(-c2ccc(O[C@H]3CCOC3)cc2)c(O[C@@H]2CCOC2)n1 (stereo partly drawn) [Example 170, N-(2,6-dimethylcyclohexyl)-4-((R)-tetrahydrofuran-3-yloxy)-5-(4-((S)-tetrahydrofuran-3-yloxy)phenyl)pyrimidin-2-amine] | +++ (+++=>0.6) | + (+=<0.1)
10 | CC1CCC(Nc2ncc(-c3ccc(O[C@@H]4CCOC4)cc3)c(OC3CN(S(=O)(=O)N(C)C)C3)n2)CC1 (stereo partly drawn) [Example 207, N,N-dimethyl-3-(2-((1s,4s)-4-methylcyclohexylamino)-5-(4-((R)-tetrahydrofuran-3-yloxy)phenyl)pyrimidin-4-yloxy)azetidine-1-sulfonamide] | +++ (+++=>0.6) | + (+=<0.1)
11 | COCCc1ccc(-c2cnc(N[C@H]3CC[C@@H](C)CC3)nc2OC2CCN(C(=O)OC)CC2)cc1 [Example 206, methyl 4-(5-(4-(2-methoxyethyl)phenyl)-2-((1s,4s)-4-methylcyclohexylamino)pyrimidin-4-yloxy)piperidine-1-carboxylate] | ++ (++=0.3-0.6) | + (+=<0.1)
12 | CC1CCC(Nc2ncc(-c3ccc(O[C@@H]4CCOC4)cc3)c(OC3CCOCC3)n2)CC1 (stereo partly drawn) [Example 93, N-((1s,4s)-4-methylcyclohexyl)-4-(tetrahydro-2H-pyran-4-yloxy)-5-(4-((R)-tetrahydrofuran-3-yloxy)phenyl)pyrimidin-2-amine] | +++ (+++=>0.6) | ++ (++=0.1-0.25)
13 | C[C@H]1CC[C@@H](Nc2ncc(-c3ccc(O[C@H]4CCOC4)cc3)c(O[C@@H]3CCOC3)n2)CC1.Cl [Example 6, 4-((R)-tetrahydrofuran-3-yloxy)-5-(4-((S)-tetrahydrofuran-3-yloxy)phenyl)-N-(cis-4-methylcyclohexyl)pyrimidin-2-amine hydrochloride salt] | ++ (++=0.3-0.6) | ++ (++=0.1-0.25)
14 | CS(=O)(=O)N1CC(COc2nc(N[C@H]3CC[C@@H](C)CC3)ncc2-c2ccc(N3CCOCC3)cc2)C1 [Example 80, N-((1s,4s)-4-methylcyclohexyl)-4-((1-(methylsulfonyl)azetidin-3-yl)methoxy)-5-(4-morpholinophenyl)pyrimidin-2-amine] | ++ (++=0.3-0.6) | +++ (+++=>0.25)
15 | CC1CCC(Nc2ncc(-c3ccc(O[C@H]4CCOC4)cc3)c(OC3CN(S(=O)(=O)C4CC4)C3)n2)CC1 (stereo partly drawn) [Example 215, 4-(1-(cyclopropylsulfonyl)azetidin-3-yloxy)-N-((1s,4s)-4-methylcyclohexyl)-5-(4-((S)-tetrahydrofuran-3-yloxy)phenyl)pyrimidin-2-amine] | +++ (+++=>0.6) | +++ (+++=>0.25)
16 | CC1CCC(Nc2ncc(-c3ccc(OC4CCN(C(=O)N(C)C)C4)cc3)c(O[C@@H]3CCOC3)n2)CC1 (stereo partly drawn) [Example 112, N,N-dimethyl-3-(4-(2-((1s,4S)-4-methylcyclohexylamino)-4-((R)-tetrahydrofuran-3-yloxy)pyrimidin-5-yl)phenoxy)pyrrolidine-1-carboxamide] | ++ (++=0.3-0.6) | + (+=<0.1)
